Results as given in patent US20240270762A1, “PENICILLIN-BINDING PROTEIN INHIBITORS” (priority 2021, published 2024).
≈ marks a conversion by molar mass, not a printed value.

What was measured:
[1] = tested on: P. aeruginosa ATCC 27853; test: microbe, parasite or virus in culture; assay type: cell-based; conditions: Pseudomonas aeruginosa, ATCC27853, read-out: MIC P. aeruginosa ATCC 27853
[2] = tested on: N. gonorrhoeae MS11; test: Liquid broth MIC in Fastidious broth; conditions: Neisseria gonorrhoeae, MS11, read-out: Minimum Inhibitory Concentration (MIC), N. gonorrhoeae MS11
[3] = biological target: T1, PBP2 from Neisseria gonorrhoeae (FA19) (Neisseria gonorrhoeae, UniProt P08149); test: Bocillin-FL fluorescence polarization competition binding, N. gonorrhoeae PBP2; conditions: fluorescence polarization competition binding assay using Bocillin-FL, read-out: N. gonorrhoeae PBP2 Potency
T1 construct: made in house
How it was run: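 Fluorescence polarization competition with 0.1 μM Bocillin-FL (fluorescent penicillin V) against 0.25 μM N. gonorrhoeae FA19 PBP2 in 50 mM Hepes pH 8.0, 300 mM NaCl, 10% glycerol. Boronic acid inhibitors were preincubated with PBP, then Bocillin-FL was added and FP read (490/520 nm) up to 60 min. EC50 is the concentration halving PBP-bound Bocillin-FL.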

[4] = tested on: N. gonorrhoeae WHO K; test: Liquid broth MIC in Fastidious broth; conditions: Neisseria gonorrhoeae, read-out: Minimum Inhibitory Concentration (MIC), N. gonorrhoeae WHO K
[5] = tested on: K. pneumoniae UMM; test: microbe, parasite or virus in culture; assay type: cell-based; conditions: Klebsiella pneumoniae, read-out: MIC K. pneumoniae UMM
[6] = tested on: E. coli D22; test: microbe, parasite or virus in culture; assay type: cell-based; conditions: Escherichia coli, D22, read-out: MIC E. coli D22
[7] = tested on: N. gonorrhoeae WHO G; test: Liquid broth MIC in Fastidious broth; conditions: Neisseria gonorrhoeae, read-out: Minimum Inhibitory Concentration (MIC), N. gonorrhoeae WHO G
[8] = tested on: N. gonorrhoeae CDC-0197; test: Liquid broth MIC in Fastidious broth; conditions: Neisseria gonorrhoeae, CDC0197, read-out: Minimum Inhibitory Concentration (MIC), N. gonorrhoeae CDC-0197
[9] = tested on: E. coli ATCC 25922; test: microbe, parasite or virus in culture; assay type: cell-based; conditions: Escherichia coli, ATCC25922, read-out: MIC E. coli 25922

T1 sequence (P08149 whole entry): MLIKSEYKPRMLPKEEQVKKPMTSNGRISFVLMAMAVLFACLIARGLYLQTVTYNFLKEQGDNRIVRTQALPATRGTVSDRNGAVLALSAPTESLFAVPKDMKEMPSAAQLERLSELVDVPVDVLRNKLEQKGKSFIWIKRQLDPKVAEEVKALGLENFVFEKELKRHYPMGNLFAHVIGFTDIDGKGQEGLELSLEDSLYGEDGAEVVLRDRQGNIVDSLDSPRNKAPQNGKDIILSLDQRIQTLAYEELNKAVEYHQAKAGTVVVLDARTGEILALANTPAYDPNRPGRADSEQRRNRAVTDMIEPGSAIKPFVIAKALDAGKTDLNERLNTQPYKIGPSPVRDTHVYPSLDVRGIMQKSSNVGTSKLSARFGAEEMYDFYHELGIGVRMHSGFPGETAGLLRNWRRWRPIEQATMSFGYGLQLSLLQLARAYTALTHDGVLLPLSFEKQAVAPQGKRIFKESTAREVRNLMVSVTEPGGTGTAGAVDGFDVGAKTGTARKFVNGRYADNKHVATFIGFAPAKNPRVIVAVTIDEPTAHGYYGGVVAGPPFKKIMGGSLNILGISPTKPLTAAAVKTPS

Compound | MIC [1] | MIC [2] | EC50 [3] | MIC [4] | MIC [5] | MIC [6] | MIC [7] | MIC [8] | MIC [9]
O=C(O)c1cccc2c1OB(O)[C@@H](NC(=O)[C@H](NC(=O)N1CCNC1=O)c1ccc(P(=O)(O)O)cc1)C2 [Example 40, (R)-2-hydroxy-3-((R)-2-(2-oxoimidazolidine-1-carboxamido)-2-(4-phosphonophenyl)acetamido)-3,4-dihydro-2H-benzo[e][1,2]oxaborinine-8-carboxylic acid] | 32 to 64 µg/mL (≈ 60.1 to 120 µM) | < 1 µg/mL | < 10 µM | 1 to 2 µg/mL (≈ 1.88 to 3.76 µM) | 32 to 64 µg/mL (≈ 60.1 to 120 µM) | 2 to 4 µg/mL (≈ 3.76 to 7.52 µM) | < 1 µg/mL | < 1 µg/mL | 32 to 64 µg/mL (≈ 60.1 to 120 µM)
CN1CCN(C(=O)NC(C(=O)N[C@H]2Cc3cccc(C(=O)O)c3OB2O)c2ccc(P(=O)(O)O)cc2)C1=O (stereo partly drawn) [Example 41, (3R)-2-hydroxy-3-(2-(3-methyl-2-oxoimidazolidine-1-carboxamido)-2-(4-phosphonophenyl)acetamido)-3,4-dihydro-2H-benzo[e][1,2]oxaborinine-8-carboxylic acid] | > 128 µg/mL | < 1 µg/mL | < 10 µM | < 1 µg/mL | 32 to 64 µg/mL (≈ 58.6 to 117 µM) | 2 to 4 µg/mL (≈ 3.66 to 7.32 µM) | < 1 µg/mL | < 1 µg/mL | 32 to 64 µg/mL (≈ 58.6 to 117 µM)
CCN1CCN(C(=O)NC(C(=O)N[C@H]2Cc3cccc(C(=O)O)c3OB2O)c2ccc(P(=O)(O)O)cc2)C1=O (stereo partly drawn) [Example 42, (3R)-3-(2-(3-ethyl-2-oxoimidazolidine-1-carboxamido)-2-(4-phosphonophenyl)acetamido)-2-hydroxy-3,4-dihydro-2H-benzo[e][1,2]oxaborinine-8-carboxylic acid] | > 128 µg/mL | < 1 µg/mL | < 10 µM | 1 to 2 µg/mL (≈ 1.78 to 3.57 µM) | 32 to 64 µg/mL (≈ 57.1 to 114 µM) | 2 to 4 µg/mL (≈ 3.57 to 7.14 µM) | < 1 µg/mL | < 1 µg/mL | 32 to 64 µg/mL (≈ 57.1 to 114 µM)
CS(=O)(=O)N1CCC[C@H]1C(=O)N[C@H](C(=O)N[C@H]1Cc2cccc(C(=O)O)c2OB1O)c1ccc(P(=O)(O)O)cc1 [Example 43, (R)-2-hydroxy-3-((S)-2-((S)-1-(methylsulfonyl)pyrrolidine-2-carboxamido)-2-(4-phosphonophenyl)acetamido)-3,4-dihydro-2H-benzo[e][1,2]oxaborinine-8-carboxylic acid] | > 128 µg/mL | 4 to 8 µg/mL (≈ 6.72 to 13.4 µM) | 50 to 250 µM | 16 to 32 µg/mL (≈ 26.9 to 53.8 µM) | > 128 µg/mL | 32 to 64 µg/mL (≈ 53.8 to 108 µM) | 4 to 8 µg/mL (≈ 6.72 to 13.4 µM) | 1 to 2 µg/mL (≈ 1.68 to 3.36 µM) | > 128 µg/mL
CS(=O)(=O)N1CCC[C@H]1C(=O)N[C@@H](C(=O)N[C@H]1Cc2cccc(C(=O)O)c2OB1O)c1ccc(P(=O)(O)O)cc1 [Example 44, (R)-2-hydroxy-3-((R)-2-((S)-1-(methylsulfonyl)pyrrolidine-2-carboxamido)-2-(4-phosphonophenyl)acetamido)-3,4-dihydro-2H-benzo[e][1,2]oxaborinine-8-carboxylic acid] | > 128 µg/mL | 1 to 2 µg/mL (≈ 1.68 to 3.36 µM) | < 10 µM | 4 to 8 µg/mL (≈ 6.72 to 13.4 µM) | > 128 µg/mL | 8 to 16 µg/mL (≈ 13.4 to 26.9 µM) | 1 to 2 µg/mL (≈ 1.68 to 3.36 µM) | 1 to 2 µg/mL (≈ 1.68 to 3.36 µM) | > 128 µg/mL
CS(=O)(=O)N1CCN(C(=O)NC(C(=O)N[C@H]2Cc3cccc(C(=O)O)c3OB2O)c2ccc(P(=O)(O)O)c(F)c2O)C1=O (stereo partly drawn) [Example 48, (3R)-3-(2-(3-fluoro-2-hydroxy-4-phosphonophenyl)-2-(3-(methylsulfonyl)-2-oxoimidazolidine-1-carboxamido)acetamido)-2-hydroxy-3,4-dihydro-2H-benzo[e][1,2]oxaborinine-8-carboxylic acid] | > 128 µg/mL | 1 to 2 µg/mL (≈ 1.55 to 3.1 µM) | < 10 µM | 4 to 8 µg/mL (≈ 6.21 to 12.4 µM) | > 128 µg/mL | 8 to 16 µg/mL (≈ 12.4 to 24.8 µM) | < 1 µg/mL | 1 to 2 µg/mL (≈ 1.55 to 3.1 µM) | > 128 µg/mL
O=C(O)c1cccc2c1OB(O)[C@@H](NC(=O)C(NC(=O)N1CCCC1=O)c1ccc(P(=O)(O)O)cc1)C2 (stereo partly drawn) [Example 57, (3R)-2-hydroxy-3-(2-(2-oxopyrrolidine-1-carboxamido)-2-(4-phosphonophenyl)acetamido)-3,4-dihydro-2H-benzo[e][1,2]oxaborinine-8-carboxylic acid] | > 128 µg/mL | < 1 µg/mL | < 10 µM | 4 to 8 µg/mL (≈ 7.53 to 15.1 µM) | 32 to 64 µg/mL (≈ 60.2 to 120 µM) | 8 to 16 µg/mL (≈ 15.1 to 30.1 µM) | < 1 µg/mL | < 1 µg/mL | > 128 µg/mL
N#Cc1cccc(C(=O)N[C@@H](C(=O)N[C@H]2Cc3cccc(C(=O)O)c3OB2O)c2ccc(P(=O)(O)O)cc2)n1 [Example 180, (R)-3-((R)-2-(6-cyanopicolinamido)-2-(4-phosphonophenyl)acetamido)-2-hydroxy-3,4-dihydro-2H-benzo[e][1,2]oxaborinine-8-carboxylic acid] | > 128 µg/mL | 1 to 2 µg/mL (≈ 1.82 to 3.63 µM) | < 10 µM | 1 to 2 µg/mL (≈ 1.82 to 3.63 µM) | > 128 µg/mL | 2 to 4 µg/mL (≈ 3.63 to 7.27 µM) | < 1 µg/mL | < 1 µg/mL | > 128 µg/mL
O=C(O)c1cccc2c1OB(O)[C@@H](NC(=O)C(NC(=O)c1ncccc1Cl)c1ccc(P(=O)(O)O)cc1)C2 (stereo partly drawn) [Example 183, (3R)-3-(2-(3-chloropicolinamido)-2-(4-phosphonophenyl)acetamido)-2-hydroxy-3,4-dihydro-2H-benzo[e][1,2]oxaborinine-8-carboxylic acid] | > 128 µg/mL | 4 to 8 µg/mL (≈ 7.15 to 14.3 µM) | < 10 µM | 16 to 32 µg/mL (≈ 28.6 to 57.2 µM) | > 128 µg/mL | 32 to 64 µg/mL (≈ 57.2 to 114 µM) | 4 to 8 µg/mL (≈ 7.15 to 14.3 µM) | 16 to 32 µg/mL (≈ 28.6 to 57.2 µM) | > 128 µg/mL
O=C(NC(C(=O)N[C@H]1Cc2cccc(C(=O)O)c2OB1O)c1ccc(P(=O)(O)O)cc1)c1ccc(Cl)cn1 (stereo partly drawn) [Example 184, (3R)-3-(2-(5-chloropicolinamido)-2-(4-phosphonophenyl)acetamido)-2-hydroxy-3,4-dihydro-2H-benzo[e][1,2]oxaborinine-8-carboxylic acid] | > 128 µg/mL | < 1 µg/mL | < 10 µM | 1 to 2 µg/mL (≈ 1.79 to 3.57 µM) | > 128 µg/mL | 8 to 16 µg/mL (≈ 14.3 to 28.6 µM) | < 1 µg/mL | < 1 µg/mL | > 128 µg/mL
NC(=O)c1ccc(C(=O)NC(C(=O)N[C@H]2Cc3cccc(C(=O)O)c3OB2O)c2ccc(P(=O)(O)O)cc2)nc1 (stereo partly drawn) [Example 188, (3R)-3-(2-(5-carbamoylpicolinamido)-2-(4-phosphonophenyl)acetamido)-2-hydroxy-3,4-dihydro-2H-benzo[e][1,2]oxaborinine-8-carboxylic acid] | > 128 µg/mL | < 1 µg/mL | < 10 µM | 1 to 2 µg/mL (≈ 1.76 to 3.52 µM) | > 128 µg/mL | 8 to 16 µg/mL (≈ 14.1 to 28.2 µM) | < 1 µg/mL | 1 to 2 µg/mL (≈ 1.76 to 3.52 µM) | > 128 µg/mL
CCN1CCN(C(=O)NC(C(=O)N[C@H]2Cc3cccc(C(=O)O)c3OB2O)c2ccc(S(=O)(=O)O)cc2)C(=O)C1=O (stereo partly drawn) [Example 189, (3R)-3-(2-(4-ethyl-2,3-dioxopiperazine-1-carboxamido)-2-(4-sulfophenyl)acetamido)-2-hydroxy-3,4-dihydro-2H-benzo[e][1,2]oxaborinine-8-carboxylic acid] | > 128 µg/mL | < 1 µg/mL | < 10 µM | 1 to 2 µg/mL (≈ 1.7 to 3.4 µM) | 32 to 64 µg/mL (≈ 54.4 to 109 µM) | 2 to 4 µg/mL (≈ 3.4 to 6.8 µM) | < 1 µg/mL | 1 to 2 µg/mL (≈ 1.7 to 3.4 µM) | > 128 µg/mL
